One data set concerns GL261/vIII target cells. Nature of the data set: Cytotoxic T cell killing assay, T cells from vaccinated mice. The conditions noted are these: 50:1 effector to target ratio.
For another data set, the system named is GL261/vIII. Nature of the data set: Intracranial glioma model GL261/vIII, peptide vaccination. The format is in vivo. The conditions noted are these: candidate peptides as individual vaccines. The source says: Y6-pepvIII is effective in an intracranial glioma model. Because of its significant effect on survival in the EGFRvIII subcutaneous tumor model, we selected Y6-pepvIII for in-depth analysis. First, we tested this vaccine in a model that more accurately represented human gliomas. We utilized the commonly employed murine glioma 261 (GL261) intracranial tumor model (30) which was transfected with the EGFRvIII cDNA to yield a line with high expression, GL261/vIII. We explored intracranial injection protocols that would lead to reproducible survival curves and identified conditions where 90% of the animals survived 23-29 days. To compare vaccine efficacy, mice received either Montanide (ISA51) alone, 100 ug of KLH with Montanide, 100 ug of KLH conjugated to pepvIII or Y6-pepvIII in Montanide following the vaccination schedule outlined in FIG. 2A. While KLH treatment had no measurable impact on survival, vaccination with the pepvIII induced a modest but statistically significant 23% increase in survival vs. control mice (FIG. 2B; median survival: Control=26.0 days, KLH=27 days, pepvIII=32 days, p<0.0001).
Intracranial model. Six to 8-week old C57BL/6J mice (Jackson Laboratories, Bar Harbor, ME), had gliomas established by stereotactically injecting 10,000 GL261/vIII […] CT2A/vIII cells into the left striatum (2 mm posterior to the coronal suture and 2 mm lateral to the sagittal suture) on day 0 of the experimental process as previously described. Briefly, mice were anesthetized with isoflurane (4%) and placed in the stereotactic frame. An incision was made, and a burr hole was drilled over the striatum. GL261/vIII or CT2A/vIII cells were injected at the above stated coordinates using a Hamilton Microsyringe controlled by an automated micro-pump injection system. Mice were assigned to treatment groups randomly and tumor progression was monitored by bioluminescent signal as detected by the IVIS imaging system (Caliper Life Sciences, Hopkinton, MA).
For survival experiments, each treatment group consisted of 6 to 15 mice. […]

Where a SMILES comes first, the peptide text is derived from it.

Regarding `CC(C)C[C@H](N)C(=O)N[C@@H](CCC(=O)O)C(=O)N[C@@H](CCC(=O)O)C(=O)N[C@@H](CCCCN)C(=O)N[C@@H](CCCCN)C(=O)N[C@@H](Cc1ccc(O)cc1)C(=O)N[C@@H](CC(N)=O)C(=O)N[C@@H](Cc1ccc(O)cc1)C(=O)N[C@H](C(=O)N[C@H](C(=O)N[C@H](C(=O)N[C@@H](CC(=O)O)C(=O)N[C@@H](Cc1c[nH]cn1)C(=O)O)[C@@H](C)O)C(C)C)C(C)C` [Y6-pepvIII] (H-LEEKKYNYVVTDH-OH), the “cytotoxic activity against GL261/wt target cells” value with GL261/wt target cells is on record as “no cytotoxic activity”. The “cytotoxic capacity of T cells of vaccinated mice” value in the data set on GL261/vIII target cells is on record as “increased cytotoxic capacity”.

Turning to `CC(C)C[C@H](N)C(=O)N[C@@H](CCC(=O)O)C(=O)N[C@@H](CCC(=O)O)C(=O)N[C@@H](CCCCN)C(=O)N[C@@H](CCCCN)C(=O)NCC(=O)N[C@@H](CC(N)=O)C(=O)N[C@@H](Cc1ccc(O)cc1)C(=O)N[C@H](C(=O)N[C@H](C(=O)N[C@H](C(=O)N[C@@H](CC(=O)O)C(=O)N[C@@H](Cc1c[nH]cn1)C(=O)O)[C@@H](C)O)C(C)C)C(C)C` [pepvIII, reference compound], in the data set on GL261/wt target cells, the “cytotoxic activity against GL261/wt target cells” value is “no cytotoxic activity”.

Consider LEEKKNYV, for which, in the data set on GL261/vIII, the “increase in survival relative to KLH treated control mice” value turned out to be 30%.

With LEEYVVTDH, the “increase in survival relative to KLH treated control mice” value with GL261/vIII is reported as 54%.

As to NYVVTDH, the “increase in survival relative to KLH treated control mice” value with GL261/vIII was 18%.

The values above are taken from patent US20240066115A1, “DETERMINATION AND USES OF CD8+ T CELL EPITOPES” (priority 2021, published 2024).
